Measured values published in PubChem BioAssay (NCI).
“And” between values parts separate entries of the source, which are not always exact repeats. Equal entries are not always repeated.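 Exposure lasted 48 hours, with cells grown in 96-well plates and compounds tested at five concentrations. Abbreviation: GI50, concentration required for 50% inhibition of growth. At the TGI there is no net growth.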

Legend:
Assay in all cases: growth of human tumour cells (NCI), 48 h
SW-620 colon = tested on: SW-620 colon
NCI-H226 lung = tested on: NCI-H226 lung
SNB-75 CNS = tested on: SNB-75 CNS
A498 renal = tested on: A498 renal
K-562 leukemia = tested on: K-562 leukemia
UACC-62 melanoma = tested on: UACC-62 melanoma
BT-549 breast = tested on: BT-549 breast
U251 CNS = tested on: U251 CNS
HOP-62 NSCLC = tested on: HOP-62 NSCLC
SR leukemia = tested on: SR leukemia

| SMILES | GI50 (SW-620 colon) | TGI (SW-620 colon) [µM] | GI50 (NCI-H226 lung) | TGI (NCI-H226 lung) | GI50 (SNB-75 CNS) | TGI (SNB-75 CNS) | GI50 (A498 renal) [µM] | TGI (A498 renal) | GI50 (K-562 leukemia) | TGI (K-562 leukemia) | GI50 (UACC-62 melanoma) | TGI (UACC-62 melanoma) | GI50 (BT-549 breast) | TGI (BT-549 breast) | GI50 (U251 CNS) | TGI (U251 CNS) [µM] | GI50 (HOP-62 NSCLC) | TGI (HOP-62 NSCLC) | GI50 (SR leukemia) | TGI (SR leukemia) |
| --- | --- | --- | --- | --- | --- | --- | --- | --- | --- | --- | --- | --- | --- | --- | --- | --- | --- | --- | --- | --- |
| Cc1ccc(NS(=O)(=O)c2cc(C)ccc2C)cc1 | 2.58 µM | > 100 | 15.3 µM | 70.4 µM | 3.15 µM | 24.8 µM | 2.54 | 15.4 µM | 0.761 µM | 29.4 µM | 3.08 µM | 19.9 µM | 9.62 µM | 27.4 µM | 4.25 µM | 23.8 | 4.49 µM | > 100 µM | 1.18 µM | 16.5 µM |
| COc1cc2c(OC)c(c1)CCCC1=CC(=O)C=C(CCC2)C1=O |  | > 77 |  | > 100 µM |  | > 100 µM |  | > 100 µM |  | 34.6 µM |  | > 100 µM |  | 92.3 µM |  | > 100 |  | > 100 µM |  | > 56.5 µM |
| O=C(Nc1ccc2oc(=O)c(C(=O)O)cc2c1)Oc1ccccc1 |  | > 100 |  | > 100 µM |  | > 100 µM |  | > 100 µM |  | > 100 µM |  | > 100 µM |  | > 100 µM |  | > 100 |  | > 100 µM |  | > 100 µM |
| CN1CCN(Cc2ccc(NC(=O)c3[nH]ncc3Nc3ncnc4c3CCC4)cc2)CC1 | 0.836 µM | 10.3 | 0.755 µM | 13 µM | 0.0341 µM | 3.2 µM | 1.6 | 4.45 µM | 0.648 µM | 12.1 µM | 3.24 µM | 13.5 µM | 2.14 µM | 6.97 µM | 1.48 µM | 12.4 | 2.69 µM | 11.5 µM | 0.438 µM | 3.05 µM |
| CC(=O)Oc1cccc2c1C(=O)C(Br)(Br)CCC2 |  | 9.13 |  | 20.1 µM |  | 16.5 µM |  | 33.4 µM |  | 20.8 µM |  | 20.9 µM |  | 4.19 µM |  | 23.7 |  | 22 µM |  | 8.19 µM |
| CN(C)CC#Cc1cccc(C(=O)c2cnn(-c3ccc(F)cc3)c2N)c1 | > 25 µM | > 25 | > 21.9 µM | > 25 µM | 19.6 µM | > 25 µM | > 21.3 | > 25 µM | > 17.8 µM | > 25 µM | > 25 µM | > 25 µM | > 25 µM | > 25 µM | > 25 µM | > 25 | > 25 µM | > 25 µM | > 18.2 µM | > 25 µM |
| CCc1oc2ccccc2c1C(=O)c1cc(Br)c(O)c(Br)c1 |  | > 100 |  | 50 µM |  | 48.6 µM |  | 45 µM |  | 82.7 µM |  | 33.6 µM |  | 71.4 µM |  | 31 |  | 85.7 µM |  | 55.4 µM |
| COc1cc(-c2cn(-c3ccc(Cl)cc3)c(=O)[nH]2)cc(OC)c1OC | > 100 µM | > 100 | > 100 µM | > 100 µM | > 100 µM | > 100 µM | > 100 | > 100 µM | 52.1 µM | > 100 µM | > 100 µM | > 100 µM | > 100 µM | > 100 µM | > 100 µM | > 100 | > 100 µM | > 100 µM | 0.034 µM | 39.1 µM |
| CCC(C)/C=C(C)/C=C/C(=O)c1c(O)c(-c2ccc(O)cc2)c[nH]c1=O (stereo not given) | 3.5 µM | 11.9 | 8.07 µM | 22.9 µM | 3.3 µM | 14.3 µM | 2.03 | 16.4 µM | 3.39 µM | 15.1 µM | 3.73 µM | 15.9 µM | 4.42 µM | 15.3 µM | 3.01 µM | 13 | 4.2 µM | 16.3 µM | 2.39 µM | 6.49 µM |
| Cc1ccc(NC2=C(Sc3ccc(Cl)cc3)C(=O)N(Cc3ccccc3)C2=O)cc1Cl | 6.01 µM | 36.2 | 4.23 µM | 19.9 µM | 3.92 µM | 19.4 µM | 4.8 | 17.1 µM | 3.66 µM | 19.7 µM | 13.5 µM | 30.5 µM | 10.4 µM | 24 µM | 3.24 µM | 14 | 3.14 µM | 10.4 µM | 2.86 µM | 8.12 µM |
| Nc1ncc(-c2ccc(C(F)(F)F)cc2)c(NC2CCCCCC2)n1 | 39.3 µM | > 100 | 12.9 µM | > 100 µM | 43.4 µM | > 100 µM | 13.4 | 79.3 µM | 21 µM | > 100 µM | 20.4 µM | > 100 µM | 34.9 µM | > 100 µM | 20.8 µM | 88.9 | 54.7 µM | > 100 µM | 13.2 µM | 57.2 µM |
| O=C(O)c1ccc(NS(=O)(=O)c2cccc3cccnc23)cc1 | > 100 µM | > 100 | > 100 µM | > 100 µM | > 100 µM | > 100 µM | > 100 | > 100 µM | > 100 µM | > 100 µM | > 100 µM | > 100 µM | > 100 µM | > 100 µM | > 100 µM | > 100 | > 100 µM | > 100 µM | > 100 µM | > 100 µM |
| O=C(CNC(=O)c1cccc2ccccc12)Nc1ccccc1Oc1ccccc1 | 0.283 µM | > 10 | 2.19 µM | > 10 µM | 0.231 µM | > 10 µM | 0.256 | > 10 µM | 0.0704 µM | > 10 µM | 0.177 µM | > 10 µM | 0.41 µM | 5.43 µM | 0.328 µM | > 10 | 0.354 µM | > 10 µM | 0.0825 µM | > 10 µM |
| CCc1nc2ccc(Cc3ccc(C(=O)NO)cc3)cc2c(=O)n1CCc1ccccc1 | 0.412 µM | 2.23 | 1.24 µM | 3.05 µM | 1.41 µM | 3.71 µM | 0.364 | 1.93 µM | 1.02 µM | > 100 µM | 0.52 µM | 2.64 µM | 1.73 µM | 4.79 µM | 0.963 µM | 2.28 | 1.32 µM | 2.86 µM | 0.784 µM | 61 µM |
| COc1ccc(C(=O)c2cc(OC)c(OC)c(OC)c2)cc1O | < 0.01 µM | > 100 | 4.76 µM | > 100 µM | < 0.01 µM | > 100 µM | 1.4 | 5.7 µM | < 0.01 µM | > 100 µM | 1.1 µM | > 100 µM | 0.0337 µM | > 100 µM | 0.0425 µM | > 100 | 0.0931 µM | > 100 µM | < 0.01 µM | > 100 µM |
| CN(C)CCNC(=O)c1cc([N+](=O)[O-])ccn1 |  | > 100 |  | > 100 µM |  | > 100 µM |  | > 100 µM |  | 52.2 µM |  | 42.3 µM |  | > 100 µM |  | 92.8 |  | > 100 µM |  | > 100 µM |
| C=C1C(=O)O[C@@H]2C[C@@H](C)[C@@H]3[C@@H](OC4OC(COC(C)=O)C(O)C(O)C4O)CC(=O)[C@@]3(C)C[C@H]12 (stereo not given in full) |  | 1.61 |  | 26.1 µM |  | 15.3 µM |  | 30.1 µM |  | 3.78 µM |  | 2.98 µM |  | 3.13 µM |  | 19.7 |  | 31.6 µM |  | 7.53 µM |
| COc1cccc(/C=C/C(=O)c2cc3c(N)c(C(=O)Nc4cccc(Cl)c4C)sc3nc2C)c1 | 0.472 µM | 3.85 | 0.983 µM | 2.53 µM | 0.679 µM | > 12.1 µM | 0.897 | 3.07 µM | 0.241 µM | > 50 µM | 0.844 µM | 3.5 µM | 1 µM | 2.8 µM | 0.959 µM | 2.05 | 1.1 µM | 4.64 µM | 0.217 µM | > 12.3 µM |
| O=c1[nH]nc2c3c(cccc13)NC(CN1Cc3ccccc3C1)=N2 | 7.03 µM | > 100 | 30.3 µM | > 100 µM | 2.77 µM | > 100 µM | 4.7 | > 100 µM | 8.19 µM | > 100 µM | 4.44 µM | > 100 µM | 34.7 µM | > 100 µM | 8.05 µM | > 100 | 3.2 µM | > 100 µM | 5.13 µM | > 100 µM |
| Cc1c(CN2CCC(Nc3ncnc4sc(CC(F)(F)F)cc34)CC2)ccc2c1cc(C#N)n2Cc1cn[nH]c1 | 1.81 µM and 2.19 µM | 4.97 | 7.58 µM and 4.31 µM | 40.2 µM and 36.9 µM | 8.38 µM and 2.47 µM | 26.1 µM and 27.7 µM | 7.55 | 79.4 µM and > 39.1 µM | 0.883 µM and 1.14 µM | 4.17 µM and 4.95 µM | 6.53 µM and 8.73 µM | 24.9 µM and > 44.3 µM | 2.72 µM and 3.16 µM | 17.5 µM and > 27.4 µM | 4.65 µM and 3.16 µM | 19.6 | 3.38 µM and 5.46 µM | 22 µM and > 44.6 µM | 0.571 µM and 1.36 µM | 3.68 µM and 5.19 µM |
| NC1CCC[C@@H](O)[C@H]1O (stereo not given in full) |  | > 100 |  | > 100 µM |  | > 100 µM |  | > 100 µM |  | > 100 µM |  | > 100 µM |  | > 100 µM |  | > 100 |  | > 100 µM |  | > 100 µM |
| CCc1ccc(CCC(=O)Nc2ncc(Cc3ccccc3)s2)o1 | 0.889 µM | > 100 | 53.2 µM | > 100 µM | 1.24 µM | > 100 µM | 1.29 | 8.87 µM | 0.529 µM | > 100 µM | 1.21 µM | > 100 µM | 52.2 µM | > 100 µM | 3.06 µM | > 100 | 2.91 µM | > 100 µM | 0.444 µM | > 100 µM |
